Test results published in the supplement of paper PMC10307832.

Legend:
Experiment in all cases: relative viability (nuclei count vs DMSO), 5 days (fraction); higher = more cells survive
Ponatinib + Pemetrexed = compound: Cc1ccc(C(=O)Nc2ccc(CN3CCN(C)CC3)c(C(F)(F)F)c2)cc1C#Cc1cnc2cccnn12 [Ponatinib] + Nc1nc2[nH]cc(CCc3ccc(C(=O)N[C@@H](CCC(=O)O)C(=O)O)cc3)c2c(=O)[nH]1 [Pemetrexed] (partner 0.2 µM)
How it was run: (§1)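 Five library-drug doses in √10 steps were combined with a fixed anchor-drug dose, or a single drug was given alone, by pin tool to lung cancer cell lines in 1536-well plates the day after seeding. Nuclei were stained and counted after 5 days. Relative viability is the nuclei count in treated wells over that in vehicle wells, taken as the median of duplicate plates.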

Ponatinib + Palbociclib = compound: Cc1ccc(C(=O)Nc2ccc(CN3CCN(C)CC3)c(C(F)(F)F)c2)cc1C#Cc1cnc2cccnn12 [Ponatinib] + CC(=O)c1c(C)c2cnc(Nc3ccc(N4CCNCC4)cn3)nc2n(C2CCCC2)c1=O [Palbociclib] (partner 0.5 µM)
How it was run: as §1

Pazopanib + Decitabine = compound: Cc1ccc(Nc2nccc(N(C)c3ccc4c(C)n(C)nc4c3)n2)cc1S(N)(=O)=O [Pazopanib] + Nc1ncn([C@H]2C[C@H](O)[C@@H](CO)O2)c(=O)n1 [Decitabine] (partner 2 µM)
How it was run: as §1

Pazopanib + Alpelisib = compound: Cc1ccc(Nc2nccc(N(C)c3ccc4c(C)n(C)nc4c3)n2)cc1S(N)(=O)=O [Pazopanib] + Cc1nc(NC(=O)N2CCC[C@H]2C(N)=O)sc1-c1ccnc(C(C)(C)C(F)(F)F)c1 [Alpelisib] (partner 2 µM)
How it was run: as §1

Row | Cell Line | relative viability (Ponatinib + Pemetrexed; first compound 0.002 µM) | relative viability (Ponatinib + Pemetrexed; first compound 0.006325 µM) | relative viability (Ponatinib + Pemetrexed; first compound 0.06325 µM) | relative viability (Ponatinib + Pemetrexed; first compound 0.2 µM) | relative viability (Ponatinib + Palbociclib; first compound 0.002 µM) | relative viability (Ponatinib + Palbociclib; first compound 0.006325 µM) | relative viability (Ponatinib + Palbociclib; first compound 0.06325 µM) | relative viability (Ponatinib + Palbociclib; first compound 0.2 µM) | relative viability (Pazopanib + Decitabine; first compound 0.01 µM) | relative viability (Pazopanib + Decitabine; first compound 0.03162 µM) | relative viability (Pazopanib + Decitabine; first compound 0.1 µM) | relative viability (Pazopanib + Decitabine; first compound 0.3162 µM) | relative viability (Pazopanib + Decitabine; first compound 1 µM) | relative viability (Pazopanib + Alpelisib; first compound 0.01 µM) | relative viability (Pazopanib + Alpelisib; first compound 0.03162 µM) | relative viability (Pazopanib + Alpelisib; first compound 0.1 µM) | relative viability (Pazopanib + Alpelisib; first compound 0.3162 µM) | relative viability (Pazopanib + Alpelisib; first compound 1 µM)
1 | NCI-H441 | 0.266 | 0.256 | 0.297 | 0.215 | 0.238 | 0.229 | 0.252 | 0.209 | 0.239 | 0.272 | 0.229 | 0.257 | 0.252 | 0.71 | 0.73 | 0.987 | 0.655 | 0.728
2 | NCI-H322M | 0.639 | 0.677 | 0.655 | 0.589 | 0.524 | 0.501 | 0.501 | 0.471 | 0.696 | 0.748 | 0.71 | 0.8 | 0.754 | 0.846 | 1.03 | 0.779 | 0.632 | 0.926
3 | NCI-H2347 | 0.41 | 0.444 | 0.474 | 0.485 | 0.504 | 0.441 | 0.451 | 0.404 | 0.68 | 0.555 | 0.673 | 0.732 | 0.666 | 1.06 | 1.04 | 1.08 | 1.06 | 1.16
4 | COR-L23 | 0.19 | 0.193 | 0.189 | 0.19 | 0.271 | 0.287 | 0.272 | 0.229 | 0.457 | 0.43 | 0.442 | 0.459 | 0.49 | 0.752 | 0.957 | 0.993 | 0.925 | 0.717
5 | NCI-H2087 | 0.673 | 0.648 | 0.657 | 0.579 | 0.259 | 0.25 | 0.259 | 0.329 | 0.186 | 0.321 | 0.264 | 0.252 | 0.424 | 1.08 | 1.14 | 1.22 | 0.979 | 1.06
6 | LC-2-ad | 0.274 | 0.272 | 0.296 | 0.263 | 0.474 | 0.448 | 0.359 | 0.347 | 0.88 | 0.644 | 0.915 | 0.85 | 0.776 | 0.844 | 0.884 | 0.916 | 0.866 | 0.891
7 | NCI-H1915 | 0.459 | 0.423 | 0.529 | 0.423 | 0.522 | 0.554 | 0.523 | 0.466 | 0.244 | 0.264 | 0.263 | 0.261 | 0.291 | 1.06 | 1.11 | 0.971 | 1.04 | 0.952
8 | NCI-H1944 | 0.631 | 0.662 | 0.676 | 0.719 | 0.331 | 0.392 | 0.435 | 0.338 | 0.463 | 0.424 | 0.424 | 0.427 | 0.467 | 0.751 | 0.838 | 0.839 | 0.863 | 0.982
9 | NCI-H2023 | 0.17 | 0.222 | 0.235 | 0.186 | 0.447 | 0.456 | 0.402 | 0.438 | 0.206 | 0.236 | 0.228 | 0.206 | 0.265 | 0.58 | 0.567 | 0.62 | 0.57 | 0.591
10 | COR-L 105 | 1.09 | 1.07 | 1.25 | 1.04 | 0.351 | 0.4 | 0.404 | 0.447 | 0.746 | 0.576 | 0.737 | 0.677 | 0.719 | 0.981 | 1.03 | 1.04 | 1.07 | 1.04
11 | NCI-H596 | 0.478 | 0.467 | 0.48 | 0.469 | – | – | – | – | 0.996 | 1.08 | 1.14 | 1.12 | 0.966 | 0.473 | 0.479 | 0.487 | 0.457 | 0.513
12 | ChaGo-K-1 | 0.264 | 0.258 | 0.262 | 0.246 | 0.887 | 0.964 | 0.936 | 0.856 | 0.541 | 0.482 | 0.516 | 0.528 | 0.535 | – | – | – | – | –
13 | NCI-H2342 | 0.71 | 0.733 | 0.726 | 0.646 | 0.548 | 0.522 | 0.461 | 0.498 | 0.678 | 0.684 | 0.918 | 0.612 | 0.697 | – | – | – | – | –
14 | NCI-H1299 | – | – | – | – | – | – | – | – | – | – | – | – | – | 1.07 | 0.976 | 1.12 | 1 | 1.06
15 | NCI-H1650 | 0.345 | 0.334 | 0.44 | 0.36 | 0.345 | 0.365 | 0.413 | 0.335 | 0.431 | 0.419 | 0.464 | 0.405 | 0.603 | – | – | – | – | –
16 | SW 900 | 0.458 | 0.495 | 0.457 | 0.464 | 0.484 | 0.485 | 0.569 | 0.516 | 0.516 | 0.453 | – | 0.462 | 0.505 | – | – | – | – | –
17 | NCI-H1648 | 0.574 | 0.667 | 0.63 | 0.618 | 0.266 | 0.245 | 0.246 | 0.252 | – | – | 0.528 | 0.568 | 0.46 | – | – | – | – | –
18 | NCI-H522 | 0.753 | 1.15 | 1.15 | 1.13 | 1.05 | 0.982 | 1.18 | 0.814 | 0.658 | 0.666 | 0.817 | 0.73 | 0.673 | – | – | – | – | –
19 | A549 | – | – | – | – | – | – | – | – | – | 0.276 | 0.281 | 0.273 | 0.332 | 0.798 | 0.685 | 0.828 | 0.746 | 1.01
20 | NCI-H727 | – | – | – | – | 0.737 | 0.708 | 0.769 | 0.654 | 0.724 | – | 0.879 | 0.885 | 1.02 | 0.634 | 0.693 | 0.637 | 0.664 | 0.717
21 | NCI-H1563 | 0.748 | 0.798 | 0.745 | 0.641 | – | – | – | – | – | – | – | – | – | 0.902 | 0.868 | 0.978 | 0.935 | 0.929
22 | ABC-1 | – | – | – | – | 0.571 | 0.693 | 0.877 | 0.646 | 1.01 | 1.12 | 1 | 1.31 | 0.807 | 0.859 | 1.1 | 0.984 | 1.1 | 1.03
